Laboratory results as given in publication PMC8143342, “β-Ionone Attenuates Dexamethasone-Induced Suppression of Collagen and Hyaluronic Acid Synthesis in Human Dermal Fibroblasts” (Biomolecules, 2021).

Biological target: T1, glucocorticoid receptor (GR) (Homo sapiens, UniProt P04150)
T1 construct: gene NR3C1; full-length GR
T1 sequence (P04150 1-777): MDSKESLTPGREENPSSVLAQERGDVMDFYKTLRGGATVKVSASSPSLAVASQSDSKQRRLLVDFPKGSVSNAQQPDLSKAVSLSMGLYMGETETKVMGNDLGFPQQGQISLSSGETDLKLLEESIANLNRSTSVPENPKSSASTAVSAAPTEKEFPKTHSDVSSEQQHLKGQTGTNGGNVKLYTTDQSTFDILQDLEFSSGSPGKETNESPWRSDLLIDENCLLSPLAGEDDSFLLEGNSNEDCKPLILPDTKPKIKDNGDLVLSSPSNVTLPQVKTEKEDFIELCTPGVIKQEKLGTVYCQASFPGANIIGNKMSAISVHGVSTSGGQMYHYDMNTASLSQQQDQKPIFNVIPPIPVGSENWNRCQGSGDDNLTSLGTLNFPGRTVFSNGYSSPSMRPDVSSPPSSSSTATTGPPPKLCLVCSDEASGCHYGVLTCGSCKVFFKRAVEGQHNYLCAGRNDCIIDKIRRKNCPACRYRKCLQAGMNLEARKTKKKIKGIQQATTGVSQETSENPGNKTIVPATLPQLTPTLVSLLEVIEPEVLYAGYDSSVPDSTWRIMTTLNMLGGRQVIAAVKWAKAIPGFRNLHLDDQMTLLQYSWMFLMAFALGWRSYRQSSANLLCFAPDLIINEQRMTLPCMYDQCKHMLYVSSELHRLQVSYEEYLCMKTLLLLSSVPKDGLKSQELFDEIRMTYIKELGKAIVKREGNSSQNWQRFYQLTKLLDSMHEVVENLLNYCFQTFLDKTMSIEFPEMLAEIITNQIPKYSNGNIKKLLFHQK
Assay: fluorescence polarization competition with fluorescent glucocorticoid ligand (PolarScreen GR Competitor Assay), purified GR
Format: binding

CC(=O)/C=C/C1=C(C)CCCC1(C)C [β-ionone]
IC50: 66.1 µM
